Experimental data as given in publication PMC7188855, “Nucleic acid recognition and antiviral activity of 1,4-substituted terphenyl compounds mimicking all faces of the HIV-1 Rev protein positively-charged α-helix” (Scientific Reports, 2020).
Where two headings read alike, the source gives them in different places.

Experiments:
[1] = target: RRE subdomain IIB RNA hairpin IIBh; assay: Fluorescence intensity binding to fluorescein-labelled IIBh hairpin; parameters: species or system HIV-1
Source text: We next determined whether the terphenyl molecules blocked the interaction between Rev34–50 and subdomain IIB by binding to the RNA and, if so, whether they recognized subdomain IIB in a manner similar to the Rev34–50 α-helix. We first evaluated subdomain IIB association by measuring changes in the fluorescence intensity of a IIBh RNA hairpin construct containing a fluorescein probe attached to unpaired loop IIB residue U23 (Fig. 1D)[21],[22]. […] However, there were significant differences among the compounds.
(§1) These experiments measured association to IIBh-23fl or TARh-8fl RNA molecules labelled with fluorescein at extrahelical loop nucleotides U23 and U8, respectively (Fig. 1D), and were carried out under two different ionic conditions in a Victor X5 plate reader, using excitation and emission wavelengths of 485 and 520 nm, respectively. We also attempted to measure association to an alternative IIBh hairpin containing 2-aminopurine instead of adenine at unpaired loop IIB residue A19[21], but all terphenyls fluoresced at the excitation wavelength of this fluorophore. IIBh-23fl or TARh-8fl (at 100 nM concentration) was equilibrated for 5 minutes after each ligand addition in a buffer containing either 10 mM sodium phosphate pH 6.6 and 0.1 mM EDTA or 10 mM HEPES pH 7.5, 200 mM KCl and 2 mM MgCl2. In addition to the TARh specificity control, the RNA and DNA specificity of the IIBh interactions was assessed by duplicating the experiments in the presence of a 10-fold molar excess (1 μM) of either tRNA^Lys or DNA duplex LTRd. The equilibrium dissociation constants Kd were determined by fitting the fluorescence intensity curves with DYNAFIT[40]. We used one-site, two independent-sites and two interacting-sites binding models for all curves, and the best model was automatically selected by model discrimination analysis, except where indicated. The final graphs were plotted with Prism. All fluorescence intensity experiments were performed at least two times for each compound and condition.

[2] = system: HIV-1; assay: Cellular HIV-1 infection assay (NL4.3-Ren, MT-2 cells); format: cell-based; conditions: Human immunodeficiency virus 1, MT2, 48 h post-infection
Description: (§2) The methodology used to perform and analyse these experiments has been reported elsewhere[7],[21],[22]. Briefly, infectious supernatants were obtained from transfection of plasmid pNL4.3-Ren on 293 T cells, MT-2 cells were infected with these supernatants in the presence of the compounds, and anti-HIV activity quantification was performed 48 h post-infection by determining luciferase activity in cell lysates compared to a non-treated control (100%). Cellular viability was evaluated in mock infected cells similarly treated with the same concentrations of compounds using the CellTiterGlo (Promega) assay.

[3] = target: RRE subdomain IIB-Rev34–50; assay: Fluorescence anisotropy displacement of the IIBh-Rev34–50 interaction; conditions: read-out: IC50, RRE subdomain IIB-Rev34–50, 60 nM IIBh, 10 nM frevp, 100 mM KCl, 20 mM NaCl, 2 mM MgCl2
Description: These experiments were conducted in a Victor X5 (PerkinElmer) plate reader as described before[7],[21], using 10 nM frevp and 60 nM IIBh. […] Each fluorescence anisotropy experiment was repeated at least two times.

[4] = Cellular viability (CellTiterGlo) in mock infected cells; format: cell-based; conditions: human, mock infected MT-2 cells
Description: as §2

[5] = system: high-order RRE-Rev; assay: EMSA of full-length RRE-Rev ribonucleoprotein formation; format: binding, HIV-1; conditions: 78 nM RRE, 1.32 μM Rev, 300 mM KCl, 1 mM MgCl2, band of high-order complexes
Source text: After the high-affinity interaction between RRE subdomain IIB and the Rev34–50 helix of the first Rev monomer is established, the RRE-Rev ribonucleoprotein is formed by the incorporation of additional Rev units binding to further sites in the RRE (Fig. 3B, right)[9],[10],[13]. Using an electrophoretic mobility shift assay (EMSA) involving full-length RRE and Rev, we also evaluated whether 1,4-terphenyl compounds were capable of interfering with the formation of the ribonucleoprotein. […] The effect was particularly prominent for high-order complexes (containing a greater number of Rev monomers), but the inhibition of low-order complexes by 1d was also detected at concentrations consistent with the IC50 value measured in the IIB-Rev34–50 displacement experiment. Compounds 1b and 3c exerted a weaker effect on the RRE-Rev complex, in agreement with the results obtained in the displacement experiments monitored by fluorescence anisotropy (Fig. 3B and Table 1).
(§3) The experiments monitoring RRE-Rev inhibition utilized 78 nM full-length RRE and 1.32 μM full-length Rev dissolved in 10 mM HEPES pH 7.5, 300 mM KCl, 1 mM MgCl2 and 0.5 mM EDTA binding buffer, and increasing concentrations of each compound up to 50 μM[21],[39]. The reactions were incubated at room temperature for 20 minutes and loaded onto 8% polyacrylamide gels with TB running buffer. Gels were run at 4 °C for 1–4 hours at 150 V, and the bands were stained with SYBR gold and quantified with Quantity One 4.1 analysis software. Experiments monitoring binding to the 58-base pair HIV-1 LTRc core segment utilized 20 nM LTRc duplex dissolved in the same binding buffer, and increasing concentrations of each compound. The reactions were similarly incubated and loaded onto 20% polyacrylamide gels with TB running buffer. The gels were run at 4 °C for 3.5 hours at 150 V, and the bands were stained and quantified as described above. The specificity of LTRc association was evaluated by duplicating the experiments in the presence of a 100-fold molar excess of DNAd duplex (28-fold base-pair molar excess). In all cases, we monitored the disappearance of the band corresponding to high-order RRE-Rev complexes or free LTRc, and 50% response RC50 values were determined with Prism by fitting the data to a sigmoidal inhibitory model: I−Imin=ImaxC/1+C/RC50 where I is the intensity of the band corresponding to LTRc or high-order RRE-Rev species at compound concentration C, Imax the best-fit value for maximum intensity, and Imin the minimum intensity obtained at the highest concentration of inhibitor. All EMSA experiments were repeated three times for each compound.

[6] = target: TARh hairpin containing the HIV-1 Tat-binding UCU bulge; assay: Fluorescence intensity binding to control TARh hairpin
Source text: To evaluate the specificity of subdomain IIB recognition, we measured binding to a control TARh hairpin containing the HIV-1 Tat-binding UCU bulge[23] (Fig. 1D). […] We further assessed specificity by duplicating the IIBh-23fl association experiments in the presence of a 10-fold molar excess of tRNA^Lys or a 26-base pair LTRd DNA duplex. The binding curves of the compounds were affected by the presence of competitive tRNA^Lys and to a lesser extent by LTRd (Figs. 4A, S4 and S5 and Tables 2 and S2).
as §1

[7] = system: LTRc, core region of the HIV-1 LTR promoter; assay: EMSA of association to LTRc DNA; format: binding; conditions: 20 nM LTRc duplex; 10 mM HEPES pH 7.5, 300 mM KCl, 1 mM MgCl2, 0.5 mM EDTA
Description: as §3

[8] = low ionic strength, 10 mM sodium phosphate pH 6.6, 0.1 mM EDTA, two-site model, read-out: Kd,1 first-site equilibrium dissociation constant (IIBh), Table S1
[9] = low ionic strength, 10 mM sodium phosphate pH 6.6, 0.1 mM EDTA, two-site model, read-out: Kd,2 second-site equilibrium dissociation constant (IIBh), Table S1
[10] = low ionic strength, 10 mM sodium phosphate pH 6.6, uses Kd1

`COc1ccc(-c2cc(C)c(-c3cc(CCN)c(OC)cc3CCN)cc2C)cc1CCN` [Compound 3a] showed a Kd [1, 8] of 8.9 µM, a Kd [1, 9] of 36 µM and an EC50 [2] of 35.5 µM. For the same compound, the IC50 [3] was > 100 µM and the CC50 at 48 h [4] was > 100 µM.

Compound `Cc1cc(-c2cc(CCN)ccc2CCN)c(C)cc1-c1ccccc1CCN` [Compound 4] has a Kd [1, 8] of 3.7 µM, a Kd [1, 9] of 33 µM and an EC50 [2] of 50 to 100 µM. For the same compound, the IC50 [3] was > 100 µM and the CC50 at 48 h [4] was > 100 µM.

In the case of `COc1cc(CCCN)c(-c2cc(C)c(-c3cc(CCCN)c(OC)cc3CCCN)cc2C)cc1CCCN` [Compound 2a], the Kd [1, 8] is reported as 0.67 µM, the Kd [1, 9] is reported as 25 µM and the EC50 [2] is reported as > 100 µM. For the same compound, the IC50 [3] was > 100 µM and the CC50 at 48 h [4] was > 100 µM.

For `CCOc1cc(CCN)c(-c2cc(C)c(-c3cc(CCN)c(OCC)cc3CCN)cc2C)cc1CCN` [Compound 1c], the Kd [1, 8] was 0.19 µM, the Kd [1, 9] was 74 µM and the EC50 [2] was > 100 µM. For the same compound, the IC50 [3] was > 100 µM and the CC50 at 48 h [4] was > 100 µM.

With `CCc1cc(-c2cc(CCCN)c(OC)cc2CCCN)c(CC)cc1-c1cc(CCCN)c(OC)cc1CCCN` [Compound 2b] the Kd [1, 8] was 0.11 µM, the Kd [1, 9] was 46 µM and the EC50 [2] was > 100 µM. For the same compound, the IC50 [3] was > 100 µM and the CC50 at 48 h [4] was > 100 µM.

For `COc1ccc(-c2cc(C)c(-c3cc(CCN)ccc3CCN)cc2C)cc1CCN` [Compound 3b], the Kd [1, 8] was 5.5 µM, the Kd [1, 9] was 22 µM and the EC50 [2] was > 100 µM. For the same compound, the IC50 [3] was > 100 µM and the CC50 at 48 h [4] was > 100 µM.

In the case of `CCc1cc(-c2cc(CCN)c(OC)cc2CCN)c(CC)cc1-c1cc(CCN)c(OC)cc1CCN` [Compound 1b], the IC50 [5] is reported as > 50 µM, the Kd ([1]; 10 mM sodium phosphate pH 6.6, 0.1 mM EDTA, two-site model, read-out: Kd (IIBh), first-site Kd1) is reported as 0.51 µM and the Kd ([1]; 10 mM sodium phosphate pH 6.6, 0.1 mM EDTA, two-site model, read-out: Kd (IIBh), second-site Kd2 (in brackets)) is reported as 21 µM. For the same compound, the Kd ([1]; 10-fold molar excess DNA duplex LTRd, 10 mM sodium phosphate pH 6.6, 0.1 mM EDTA, one-site fit, approximate, read-out: Kd (IIBh+LTRd)) was 6.5 µM, the Kd ([1]; 10-fold molar excess LTRd, 10 mM HEPES pH 7.5, 200 mM KCl, 2 mM MgCl2, read-out: Kd (IIBh+LTRd), one-site or first-site Kd1, Table S2) was > 50 µM and the Kd ([1]; 10-fold molar excess tRNALys, 10 mM HEPES pH 7.5, 200 mM KCl, 2 mM MgCl2, one-site fit, approximate, read-out: Kd (IIBh+tRNA), Table S2) was > 50 µM. For the same compound, the Kd ([1]; 10-fold molar excess tRNALys, 10 mM sodium phosphate pH 6.6, 0.1 mM EDTA, one-site fit, approximate, read-out: Kd (IIBh+tRNA)) was 8.7 µM, the Kd ([1]; higher ionic strength, 10 mM HEPES pH 7.5, 200 mM KCl, 2 mM MgCl2, read-out: Kd (IIBh), first-site Kd1, Table S2) was > 50 µM and the “IIB-DNA spec., Kd(IIBh)/Kd(IIBh+LTRd)” value [1, 10] was 0.078. For the same compound, the “IIB-tRNA spec., Kd(IIBh)/Kd(IIBh+tRNA)” value [1, 10] was 0.059, the EC50 [2] was > 100 µM and the Kd ([6]; 10 mM sodium phosphate pH 6.6, 0.1 mM EDTA, read-out: Kd (TARh), one-site or first-site Kd1) was > 50 µM. The Kd ([6]; higher ionic strength, 10 mM HEPES pH 7.5, 200 mM KCl, 2 mM MgCl2, read-out: Kd (TARh), Table S2) was > 50 µM, the “association to LTRc (EMSA)” value [7] was “not detected” and the IC50 [3] was > 100 µM. The CC50 at 48 h [4] was > 100 µM.
